Like-named read-outs stand apart in the source and are kept apart here.
Key:
[1] = molecular target: T1, DNMT1 (Homo sapiens, UniProt P26358); assay: DNMT1 Inhibition Assay (Epigentek DNMT1 Activity/Inhibition kit); format: biochemical; conditions: 100 μM SAM, 2.2 μg/ml DNMT1 enzyme
Description: The DNMT1 Activity/Inhibition kit from Epigentek Inc. (Brooklyn, N.Y.) was used in this experiment (Catalog No. P-3006). In general terms, this assay utilizes an active DNMT1 enzyme incubated with S-adenosylmethionine (SAM) in 96-well plates upon which unmethylated DNA has been immobilized onto the surface of each well. After incubation the reaction wells are washed and probed with a primary anti-methylcytosine antibody, which will bind to methylated DNA. A secondary antibody is then used to detect the primary antibody and creates a signal that is proportional to the amount of methylated DNA in the well. Uninhibited DNMT1 produces a well with high levels of methylated DNA (high signal), whereas inhibited DNMT1 produces a well with low levels of methylation (low signal). The final concentrations of reagents used in this DNMT1 assay were as follows: 100 μM SAM and 2.2 μg/ml DNMT1 enzyme, with inhibitor concentrations typically ranging from 100 μM to 0.781 μM.
More specifically, test compounds were resuspended in 100% DMSO at 3 mM and serially diluted 1:2 in DMSO 8 times. A volume of 100 μl of 1× assay buffer was combined with 12 μl of 1 mM SAM solution and 4 μl of 66.7 μg/mL DNMT1 enzyme in the presence of 4 μl of test compound diluted in DMSO. Controls include enzyme only (no inhibitor, but containing 3.3% DMSO), no enzyme, and compounds having inhibitory activity. A volume of 30 μl of the mixed solution was then added to the substrate-coated wells in triplicate and incubated at 37° C. for 2 hours. Reaction wells are then washed 3× with 150 μl of DNMT wash buffer. The primary antibody (anti-methylcytosine) was diluted 1:1000 in wash buffer, added to each well (50 μl) and incubated at room temperature for 1 hour. Reaction wells were washed again. The secondary antibody was diluted 1:1000 in wash buffer, added to each well (50 μl) and incubated at room temperature for 30 min. The wells were washed for the last time. […] The stop solution was added (50 μl) and the plate was immediately read on a plate reader at 450 nm absorbance. […]
Target sequence in this assay (P26358 whole entry, species assumed): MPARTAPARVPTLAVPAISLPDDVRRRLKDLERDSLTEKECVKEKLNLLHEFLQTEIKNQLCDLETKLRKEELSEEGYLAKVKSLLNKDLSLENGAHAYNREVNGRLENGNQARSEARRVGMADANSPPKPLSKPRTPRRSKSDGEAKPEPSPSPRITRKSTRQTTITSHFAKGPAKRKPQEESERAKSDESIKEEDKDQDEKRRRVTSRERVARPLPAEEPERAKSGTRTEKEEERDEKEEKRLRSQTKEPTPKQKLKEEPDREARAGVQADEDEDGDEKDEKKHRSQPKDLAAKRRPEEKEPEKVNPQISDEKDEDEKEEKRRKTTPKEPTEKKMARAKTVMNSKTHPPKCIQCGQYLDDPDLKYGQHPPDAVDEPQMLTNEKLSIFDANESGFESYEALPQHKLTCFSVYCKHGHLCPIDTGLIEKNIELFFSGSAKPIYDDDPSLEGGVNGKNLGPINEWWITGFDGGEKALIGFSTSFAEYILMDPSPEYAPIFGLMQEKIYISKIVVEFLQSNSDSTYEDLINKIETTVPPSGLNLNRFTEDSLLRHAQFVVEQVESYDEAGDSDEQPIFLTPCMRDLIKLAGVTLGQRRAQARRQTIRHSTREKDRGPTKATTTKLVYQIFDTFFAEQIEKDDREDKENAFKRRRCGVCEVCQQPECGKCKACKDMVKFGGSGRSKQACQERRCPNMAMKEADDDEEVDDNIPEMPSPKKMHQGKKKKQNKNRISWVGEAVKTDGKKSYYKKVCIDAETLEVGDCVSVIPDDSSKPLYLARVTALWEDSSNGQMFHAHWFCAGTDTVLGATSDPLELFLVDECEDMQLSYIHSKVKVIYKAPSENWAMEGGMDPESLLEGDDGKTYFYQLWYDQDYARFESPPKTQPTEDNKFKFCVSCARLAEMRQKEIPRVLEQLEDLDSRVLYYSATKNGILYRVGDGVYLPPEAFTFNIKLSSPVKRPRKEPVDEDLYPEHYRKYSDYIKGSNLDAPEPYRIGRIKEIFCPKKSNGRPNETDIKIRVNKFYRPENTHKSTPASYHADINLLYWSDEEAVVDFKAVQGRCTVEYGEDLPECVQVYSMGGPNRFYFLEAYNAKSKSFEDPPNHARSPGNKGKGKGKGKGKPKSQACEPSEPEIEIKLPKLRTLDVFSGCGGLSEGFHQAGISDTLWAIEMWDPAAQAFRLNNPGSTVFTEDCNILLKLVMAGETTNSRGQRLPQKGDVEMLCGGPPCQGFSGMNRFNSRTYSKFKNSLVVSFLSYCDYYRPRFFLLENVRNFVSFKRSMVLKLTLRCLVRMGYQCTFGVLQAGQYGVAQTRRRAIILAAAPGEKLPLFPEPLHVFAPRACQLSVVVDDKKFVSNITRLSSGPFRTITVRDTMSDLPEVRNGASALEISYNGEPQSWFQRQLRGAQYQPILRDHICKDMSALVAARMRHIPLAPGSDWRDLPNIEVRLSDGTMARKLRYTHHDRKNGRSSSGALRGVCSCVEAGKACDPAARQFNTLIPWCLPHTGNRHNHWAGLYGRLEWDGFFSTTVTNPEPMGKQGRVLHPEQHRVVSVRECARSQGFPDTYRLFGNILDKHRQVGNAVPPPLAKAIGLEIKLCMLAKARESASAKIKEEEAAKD

[2] = tested on: HCT-116; assay: Cell-based growth assay (Cell-Titer-Glo), HCT-116; conditions: Homo sapiens; HCT-116, 96 hours; read-out: IC50 Values CTG
Description: (§1) Cell culture-based assays can be used to evaluate the ability of compounds of the invention to inhibit one or more cellular activities, such as cancer cell growth and/or survival. Numerous cancer cell lines can be obtained from the American Type Culture Collection (ATCC) and other sources. Briefly, cells are seeded into 96-well, tissue-culture treated, opaque white plates (Thermo Electron, Vantaa, Finland), at between 5000 and 10000 cells per well, depending on the speed of cell proliferation, in 100 μl of appropriate growth medium (determined by the ATCC). Cells are then exposed to the appropriate concentration of drug or an equal amount of DMSO (drug diluent) and allowed to grow in its presence for 96 hours. Following this, 100 μl of Cell-Titer-Glo (CTG) reagent (Promega, Inc., Madison, Wis.) is added to each well. Plates are then shaken for 2 minutes at room temperature to allow for cell lysis and incubated for 10 minutes at room temperature to stabilize the luminescent signal. Similar to the Kinase-Glo assay reagent from Promega, this reagent contains both luciferase enzyme and its substrate luciferin. Luciferase, activated by ATP in the cell lysate, catalyzes the conversion of luciferin to oxyluciferin, a reaction which produces light. […]

[3] = tested on: RKO; assay: Cell-based growth assay (Cell-Titer-Glo), RKO; conditions: Homo sapiens, 96 hours, read-out: IC50 Values CTG
Description: Cell culture-based assays can be used to evaluate the ability of compounds of the invention to inhibit one or more cellular activities, such as cancer cell growth and/or survival. Numerous cancer cell lines can be obtained from the American Type Culture Collection (ATCC) and other sources. Briefly, cells are seeded into 96-well, tissue-culture treated, opaque white plates (Thermo Electron, Vantaa, Finland), at between 5000 and 10000 cells per well, depending on the speed of cell proliferation, in 100 μl of appropriate growth medium (determined by the ATCC). Cells are then exposed to the appropriate concentration of drug or an equal amount of DMSO (drug diluent) and allowed to grow in its presence for 96 hours. Following this, 100 μl of Cell-Titer-Glo (CTG) reagent (Promega, Inc., Madison, Wis.) is added to each well. Plates are then shaken for 2 minutes at room temperature to allow for cell lysis and incubated for 10 minutes at room temperature to stabilize the luminescent signal. Similar to the Kinase-Glo assay reagent from Promega, this reagent contains both luciferase enzyme and its substrate luciferin. Luciferase, activated by ATP in the cell lysate, catalyzes the conversion of luciferin to oxyluciferin, a reaction which produces light. The amount of light produced is proportionate to the amount of ATP in the cell lysate, which is itself proportional to cell number and gives an index of cellular proliferation.

[4] = tested on: Panc-1; assay: Cell-based growth assay (Cell-Titer-Glo), Panc-1; conditions: Homo sapiens; Panc-1, 96 hours; read-out: IC50 Values CTG
Description: as §1

[5] = tested on: p16; assay: RT-PCR assay for gene expression (p16) in RKO and HCT-116 cells; format: cell-based; conditions: for RNA expression levels of p16: FIG. 1, varying concentrations, forty eight hour incubation
Description: RKO and HCT-116 cells were treated with Cpd. AAA, Cpd. BBB, and Cpd. CCC at varying concentrations. After a forty eight hour incubation cells were harvested for RNA isolation using the Qiagen RNeasy Mini kit. RNA was quantified using a spectrophotometer and 1 μg of RNA was used for cDNA synthesis using the Bio-Rad iScript cDNA Synthesis Kit. RTPCR was performed using SYBER GreenER qPCR SuperMix for iCycler according to the manufacturer's protocol. Primer sequences used are as follows [NT] (SEQ ID NO: 2) and [NT] (SEQ ID NO: 3), MLH-1 [NT] (SEQ ID NO: 4) and [NT] (SEQ ID NO:5), [NT] (SEQ ID NO: 6) and [NT] (SEQ ID NO: 7), GAPDH [NT] (SEQ ID NO:8) and [NT] (SEQ ID NO:9), and […] (SEQ ID NO: 10) and [NT] (SEQ ID NO:11). Samples were analyzed on the iQ5 Multicolor Real-Time PCR Detection System from Bio-Rad. Data analysis was performed using the iQ5 Optical System Software version 2.0, Threshold Cycle (CT) and CT mean values were determined from this software. For each sample there are at least four reactions, two for p16 and two for GAPDH the housekeeping control. The mean CT value from the GAPDH reactions was subtracted from each of the corresponding p16 samples CT giving a value termed Delta CT. Then the Delta CT for the untreated p16 sample is subtracted from all treated Delta CT values giving another value termed Delta Delta CT. […] The duplicate samples are averaged together to get an average Relative Expression for each treatment and the Standard Error is calculated. Relative expression values for p15 and MLH-1 were calculated using the same method. […] AAA, Cpd. BBB, and Cpd. […] Cpd. […] Because the higher levels of p16 seemed to have less effect in causing re-expression of p16 there may be some issues with drug solubility or toxicity at the higher concentrations tested.

[6] = molecular target: T1, DNMT1; assay: Selective depletion of DNMT1 by Western blot in treated HCT116 cells; format: cell-based; parameters: Protein extracts (equivalent to 100 μg) were isolated from HCT116 cells; endogenous in cells; host or cells: HCT116; conditions: for % DNMT1 protein level remaining at 5 µM: HCT-116, 5 μM; for % DNMT1 protein level remaining at 10 µM: HCT-116, 10 μM; for % DNMT1 protein level remaining at 100 µM: HCT-116, 100 μM
Description: Biol. 2005, 11, 4727-41.]. For DNMT1, commercially available antibodies from Santa Cruz or New England Biolabs were used.
Target sequence in this assay (P26358 whole entry): as the sequence (P26358 whole entry, species assumed) above

[7] = tested on: CMV-EE210 cell line containing the epigenetically silenced GFP transgene; assay: Cell-based GFP assay for demethylating activity (reactivation of silenced GFP transgene); conditions: for IC50: read-out: GFP IC50
Description: (§2) The demethylating activity of non-bis-quaternary 4-anilinoquinolines were tested in a cell-based GFP (green fluorescent protein) assay. This assay has a GFP gene regulated by the CMV promoter and is sensitive to the methylation of CpG sites within the promoter. A decrease in methylation resulting from exposure to a methylation inhibitor leads to GFP expression and is readily scored. Specifically, the CMV-EE210 cell line containing the epigenetically silenced GFP transgene was used to assay for reactivation of GFP expression by flow cytometry. CMV-EE210 was made by transfecting NIH 3T3 cells with the pTR-UF/UF1/UF2 plasmid (Zolotuhin et al., 1996), which is comprised of pBS(+) (Stratagene, Inc.) containing a cytomegalovirus (CMV) promoter driving a humanized GFP gene adapted for expression in mammalian cells. After transfection, high-level GFP expressing cells were initially selected by FACS analysis and sorting using a MoFlo cytometer (Cytomation, Inc.). […] To screen for reactivation of CMV-EE210, decitabine (at […]) or a test compound (at a concentration of 30-50 μM) was added to complete medium (phenol red free DMEM (Gibco, Life Technologies) supplemented with 10% fetal bovine serum (Hyclone)). Cells were then seeded to 30% confluence (˜5000 cell/well) in 96 well plate containing the test compounds and grown for three days in at 37° C. in 5% CO2. The plates were examined under a fluorescent microscope using a 450-490 excitation filter (13 filter cube, Leica, Deerfield Ill.). Wells were scored g1 positive if 10% of viable cells express GFP, g2 positive if 30% of viable cells express GFP and g3 if greater than 75% of the viable cells express GFP. GFP IC 50 is the concentration of an inhibitor that (like an IC50) is the dose at which the GFP expression level goes from g3 to g1/2.

[8] = tested on: CMV-EE210 cell line; assay: Toxicity (TD50, cell viability) reported with the GFP assay; conditions: for TD50: Dose at which cells are >50% viable
Description: as §2

Structure (SMILES)	IC50 [1] [µM]	IC50 [3] [µM]	RNA expression levels of p16 [5]	melting point	% DNMT1 protein level remaining at 5 µM [6] [%]	% DNMT1 protein level remaining at 10 µM [6] [%]	% DNMT1 protein level remaining at 100 µM [6] [%]	IC50 [7] [µM]	toxicity relative to decitabine [8]	TD50 [8] [µM]	other results
O=C(Nc1ccc(SC2CCNC2)cc1)c1ccc(Nc2ccnc3ccccc23)cc1 (stereo not drawn) [Cpd. EEE, 3-(4-(4-(quinolin-4-ylamino)benzamido)phenylthio)pyrrolidine]	5.5										
Cl.Nc1cc(Sc2ccc(NC(=O)c3ccc(Nc4ccnc5ccccc45)cc3)cc2)ccn1 [Cpd. BBB, N-[4-(2-aminopyridin-4-ylthio)phenyl]-4-(quinolin-4-ylamino)benzamide hydrochloride]		0.74	increase the RNA expression levels of p16								IC50 [2]: 0.67 µM; IC50 [4]: 1 µM
CN(C)c1ccc2c(Nc3ccc(NC(=O)c4cccc(Nc5cc[n+](C)cc5)c4)cc3)ccnc2c1 [Cpd. CC, 7-(dimethylamino)-4-[4-({3-[(1-methyl-4-pyridiniumyl)amino]benzoyl}amino)aniline]quinolinium dichloride]				188 °C (dec.)	65	81	26	6	less than one-half as toxic as decitabine	25	
O=C(Nc1ccc(SC2CNC(C(=O)O)C2)cc1)c1ccc(Nc2ccnc3ccccc23)cc1 (stereo not drawn) [Cpd. DDD, 4-(4-(4-(quinolin-4-ylamino)benzamido)phenylthio)pyrrolidine-2-carboxylic acid]	1.6										
O=C(Nc1ccc(SC2CCCNC2)cc1)c1ccc(Nc2ccnc3ccccc23)cc1 (stereo not drawn) [Cpd. GGG, N-(4-(piperidin-3-ylthio)phenyl)-4-(quinolin-4-ylamino)-benzamide]	0.31										
CN(C)c1ccc2nccc(Nc3ccc(C(=O)Nc4cccc(Nc5cc[n+](C)cc5)c4)cc3)c2c1 [Cpd. Q, 6-(dimethylamino)-4-[4-({3-[(1-methyl-4-pyridiniumyl)amino]anilino}carbonyl)anilino]quinolinium dichloride]				> 300 °C	219	93	10	12.5	less than one-half as toxic as decitabine	25	
Cl.O=C(Nc1ccc(Sc2ccncc2)cc1)c1ccc(Nc2ccnc3ccccc23)cc1 [Cpd. AAA, N-[4-(pyridin-4-ylthio)phenyl]-4-(quinolin-4-ylamino)benzamide hydrochloride]		1.22	increase the RNA expression levels of p16								IC50 [2]: 6.15 µM; IC50 [4]: 1.8 µM; re-expression of p16 over no treatment ([5]; concentration of 0.11 M (so in the source)): greatest re-expression of p16
C[n+]1ccc(Nc2ccc(NC(=O)c3ccc(Nc4ccnc5ccc(N)cc45)cc3)cc2)cc1 [Cpd. L, 4-[4-({4-[(6-ammonio-4-quinolinyl)amino]benzoyl}amino)anilino]-1-methylpyridinium dichloride]				262 to 266 °C	144	145	128	50		50	GFP Expression Level ([7]; test compound 30-50 μM, decitabine at 11 M (so in the source), three days): g2 (g2 positive if 30% of viable cells express GFP)
Cl.O=C(Nc1ccc(Sc2ccnc(O)c2)cc1)c1ccc(Nc2ccnc3ccccc23)cc1 [Cpd. CCC, N-[4-(2-hydroxypyridin-4-ylthio)phenyl]-4-(quinolin-4-ylamino)benzamide hydrochloride]		6.6	increase the RNA expression levels of p16								
Cc1cc(Nc2ccc(NC(=O)c3ccc(Nc4ccnc5ccc(N(C)C)cc45)cc3)cc2)nc(N)n1.Cl [Cpd. P, N-[4-(2-amino-6-methylpyrimidin-4-ylamino)phenyl]-4-(6-(dimethylamino)quinolin-4-ylamino)benzamide hydrochloride]				260 to 265 °C	57	91	11		less than one-half as toxic as decitabine	25	IC50 ([7]; dose at which the GFP expression level goes from g3 to g1/2): 50 µM
